From US12448388B2, “PRMT5 inhibitors and uses thereof” (Gilead Sciences, Inc., priority 2023, dated 2025)

System: HCT116 MTAP-deleted cell lines
Test: Cell viability assay (CellTiter-Glo, 7 days), HCT116 MTAP-deleted
Assay type: cell-based
Conditions: Homo sapiens, HCT-116; cell viability assay, HCT116 MTAP-deleted; class symbols; read-out: CC50
Summary of the method: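 Dose-response, PRMT5 inhibitors from DMSO serial dilution, pre-spotted; cells seeded onto compound plates. 7 d, 37 °C/5% CO2/90% RH. Readout: CTG luminescence → CC50.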

Row | SMILES | CC50 [nM]
1 | CN(C(=O)c1cc2c(cc1Cl)nc(N)c1cncn12)[C@@H]1COc2cc(OC(F)(F)F)ccc21 [Ff-562, (S)-4-amino-7-chloro-N-methyl-N-(6-(trifluoromethoxy)-2,3-dihydrobenzofuran-3-yl)imidazo[1,5-a]quinoxaline-8-carboxamide] | < 100
2 | Nc1nc2ccc(C(=O)N3CCC[C@@H]4Oc5cc(C(F)(F)F)c(F)cc5[C@@H]43)cc2n2cncc12 [Ff-389, (4-aminoimidazo[1,5-a]quinoxalin-8-yl)((4aS,9bS)-8-fluoro-7-(trifluoromethyl)-3,4,4a,9b-tetrahydrobenzofuro[3,2-b]pyridin-1(2H)-yl)methanone] | < 100
3 | CN(C(=O)c1cc2c(cc1F)nc(N)c1cncn12)[C@@H]1COc2cc(C#CC3CC(F)(F)C3)ccc21 [Ff-525, (S)-4-amino-N-(6-((3,3-difluorocyclobutyl)ethynyl)-2,3-dihydrobenzofuran-3-yl)-7-fluoro-N-methylimidazo[1,5-a]quinoxaline-8-carboxamide] | 100 to 1000
4 | C[C@H](c1ncccn1)N(Cc1ccc(C(F)(F)F)cc1F)C(=O)c1cc2c(cc1F)nc(N)c1cncn12 [Ff-416, 4-amino-7-fluoro-N-[[2-fluoro-4-(trifluoromethyl)phenyl]methyl]-N-[(1R)-1-pyrimidin-2-ylethyl]imidazo[1,5-a]quinoxaline-8-carboxamide] | < 100
5 | Cc1ncn2c1c(N)nc1cc(F)c(C(=O)N3C[C@@H](F)C[C@@H]4Oc5cc(C(F)(F)F)ccc5[C@@H]43)cc12 [Ff-659, (4-amino-7-fluoro-3-methylimidazo[1,5-a]quinoxalin-8-yl)((3S,4aS,9bS)-3-fluoro-7-(trifluoromethyl)-3,4,4a,9b-tetrahydrobenzofuro[3,2-b]pyridin-1(2H)-yl)methanone] | < 100
6 | Nc1nc2cc(Cl)c(C(=O)N3CC[C@H]4C[C@@H]3c3ccc(OC(F)F)cc34)cc2n2cncc12 [Ff-598, (4-amino-7-chloroimidazo[1,5-a]quinoxalin-8-yl)((1R,5S)-7-(difluoromethoxy)-1,3,4,5-tetrahydro-2H-1,5-methanobenzo[c]azepin-2-yl)methanone] | < 100
7 | Cc1ncc2c(N)nc3cnc(C(=O)N4C[C@H](C)C[C@@H]5Oc6c(ccc(C(F)(F)F)c6F)[C@@H]54)cc3n12 [Ff-388, (4-amino-1-methylimidazo[1,5-a]pyrido[3,4-e]pyrazin-8-yl)((3R,4aS,9bS)-6-fluoro-3-methyl-7-(trifluoromethyl)-3,4,4a,9b-tetrahydrobenzofuro[3,2-b]pyridin-1(2H)-yl)methanone] | < 100
8 | CN(C(=O)c1cc2c(cc1F)nc(N)c1cncn12)[C@@H]1COc2cc(C3CC(C#N)C3)ccc21 (stereo partly drawn) [Ff-465, (S)-4-amino-N-(6-(3-cyanocyclobutyl)-2,3-dihydrobenzofuran-3-yl)-7-fluoro-N-methylimidazo[1,5-a]quinoxaline-8-carboxamide] | < 100
9 | C[C@H]1OC[C@@H](N(C)C(=O)c2ccc3nc(N)c4cncn4c3c2)c2ccc(C(F)(F)F)cc21 (single isomer, unassigned) [Ff-471] | < 100
10 | CN(Cc1ccc(C(F)(F)F)cc1C(F)(F)F)C(=O)c1ccc2nc(N)c3cncn3c2c1 [Ff-409, 4-amino-N-[[2,4-bis(trifluoromethyl)phenyl]methyl]-N-methyl-imidazo[1,5-a]quinoxaline-8-carboxamide] | 100 to 1000
11 | CC(=O)N1CC(C#Cc2ccc3c(c2)OC[C@H]3N(C)C(=O)c2ccc3nc(N)c4cncn4c3c2)C1 [Ff-529] | 100 to 1000
12 | Cc1ncn2c1c(N)nc1cc(F)c(C(=O)N3C[C@H](C)C[C@@H]4Oc5nc(C(F)(F)F)ccc5[C@@H]43)cc12 [Ff-374, (4-amino-7-fluoro-3-methylimidazo[1,5-a]quinoxalin-8-yl)((3R,4aS,9bS)-3-methyl-7-(trifluoromethyl)-3,4,4a,9b-tetrahydrofuro[2,3-b:4,5-b′]dipyridin-1(2H)-yl)methanone] | < 100
13 | Nc1nc2cc(Cl)c(C(=O)N3CC[C@H]4C[C@@H]3c3ccc(C(F)(F)F)nc3O4)cc2n2cncc12 [Ff-371, (4-amino-7-chloroimidazo[1,5-a]quinoxalin-8-yl)((2S,6R)-9-(trifluoromethyl)-3,4-dihydro-2H-2,6-methanopyrido[2,3-b][1,5]oxazocin-5(6H)-yl)methanone] | < 100
14 | Nc1nc2cnc(C(=O)N3CC4(CC4)C[C@@H]4Oc5cc(OC(F)(F)F)ccc5[C@@H]43)cc2n2cncc12 [Fg-61, (4-aminoimidazo[1,5-a]pyrido[3,4-e]pyrazin-8-yl)((4aS,9bS)-7-(trifluoromethoxy)-4a,9b-dihydro-2H-spiro[benzofuro[3,2-b]pyridine-3,1′-cyclopropan]-1(4H)-yl)methanone] | < 100
15 | CN(C(=O)c1ccc2nc(N)c3cncn3c2c1)[C@@H]1COc2cc(C#CC34CCC(CC3)O4)ccc21 [Ff-528, (S)—N-(6-((7-oxabicyclo[2.2.1]heptan-1-yl)ethynyl)-2,3-dihydrobenzofuran-3-yl)-4-amino-N-methylimidazo[1,5-a]quinoxaline-8-carboxamide] | 100 to 1000
16 | Nc1nc2cc(F)c(C(=O)N3CCC(F)(F)C[C@@H]3c3ccc(S(F)(F)(F)(F)F)cc3)cc2n2cncc12 [Ff-405, (R)-(4-amino-7-fluoroimidazo[1,5-a]quinoxalin-8-yl)(4,4-difluoro-2-(4-(pentafluoro-λ^6-sulfaneyl)phenyl)piperidin-1-yl)methanone] | < 100

Same assay, conditions: Homo sapiens, HCT-116; cell viability, HCT116 MTAP-deleted; class symbols; read-out: CC50

Row | SMILES | CC50 [nM]
17 | C[C@@H]1C[C@@H]2Oc3cc(C(F)(F)F)c(F)cc3[C@@H]2N(C(=O)c2cc3c(cc2F)nc(N)c2cncn23)C1 [Ff-248, (4-amino-7-fluoroimidazo[1,5-a]quinoxalin-8-yl)((3R,4aS,9bS)-8-fluoro-3-methyl-7-(trifluoromethyl)-3,4,4a,9b-tetrahydrobenzofuro[3,2-b]pyridin-1(2H)-yl)methanone] | < 100
18 | C[C@@H]1CN(C(=O)c2ccc3nc(N)c4cncn4c3c2)[C@H]2c3ccc(OC(F)(F)F)cc3C[C@H]2O1 (single isomer, unassigned) [Ff-187] | < 100
19 | CN1CC[C@@H](N(Cc2ccc(C(F)(F)F)cc2F)C(=O)c2cc3c(cc2F)nc(N)c2cncn23)C1=O [Ff-70, 4-amino-7-fluoro-N-[[2-fluoro-4-(trifluoromethyl)phenyl]methyl]-N-[(3R)-1-methyl-2-oxo-pyrrolidin-3-yl]imidazo[1,5-a]quinoxaline-8-carboxamide] | < 100
20 | Nc1nc2cc(F)c(C(=O)N(Cc3ccc(C(F)(F)F)cc3F)c3ncco3)cc2n2cncc12 [Ff-226, 4-amino-7-fluoro-N-(2-fluoro-4-(trifluoromethyl)benzyl)-N-(oxazol-2-yl)imidazo[1,5-a]quinoxaline-8-carboxamide] | < 100
21 | Nc1nc2cc(F)c(C(=O)N3CCO[C@@H]4Cc5cc(-c6ccc(C(F)(F)F)cc6)ccc5[C@@H]43)cc2n2cncc12 [Ff-240, (4-amino-7-fluoroimidazo[1,5-a]quinoxalin-8-yl)((4aS,9aR)-7-(4-(trifluoromethyl)phenyl)-2,3,9,9a-tetrahydroindeno[2,1-b][1,4]oxazin-4(4aH)-yl)methanone] | 100 to 1000
22 | Nc1nc2ccc(C(=O)N3CCO[C@@H]4Cc5cc(OC(F)(F)F)c(F)cc5[C@@H]43)cc2n2cncc12 [Ff-177, (4-aminoimidazo[1,5-a]quinoxalin-8-yl)((4aS,9aR)-6-fluoro-7-(trifluoromethoxy)-2,3,9,9a-tetrahydroindeno[2,1-b][1,4]oxazin-4(4aH)-yl)methanone] | < 100
23 | C[C@@H]1CN(C(=O)c2cc3c(cc2F)nc(N)c2cncn23)[C@H]2c3cc(F)c(C(F)(F)F)cc3C[C@H]2O1 (single isomer, unassigned) [Ff-328] | < 100
24 | CCN(C(=O)c1ccc2nc(N)c3cncn3c2c1)[C@@H](c1ccc(C(F)(F)F)cc1F)C(F)F [Fb-15, (S)-4-amino-N-(2,2-difluoro-1-(2-fluoro-4-(trifluoromethyl)phenyl)ethyl)-N-ethylimidazo[1,5-a]quinoxaline-8-carboxamide] | < 100
25 | Cc1ncn2c1c(N)nc1cnc(C(=O)N3CCO[C@@H]4Cc5cc(OC(F)(F)F)c(F)cc5[C@@H]43)cc12 [Ff-180, (4-amino-3-methylimidazo[1,5-a]pyrido[3,4-e]pyrazin-8-yl)((4aS,9aR)-6-fluoro-7-(trifluoromethoxy)-2,3,9,9a-tetrahydroindeno[2,1-b][1,4]oxazin-4(4aH)-yl)methanone] | < 100
26 | Cc1ncc2c(N)nc3ccc(C(=O)N(C)[C@@H]4COc5cc(C(F)(F)F)c(F)cc54)cc3n12 [Ff-352, (S)-4-amino-N-(5-fluoro-6-(trifluoromethyl)-2,3-dihydrobenzofuran-3-yl)-N,1-dimethylimidazo[1,5-a]quinoxaline-8-carboxamide] | < 100
27 | CN(C(=O)c1cc2c(cc1F)nc(N)c1cncn12)C1CCc2nc(Br)ccc21 (centres unmarked) [Ff-209, 4-amino-N-(2-bromo-6,7-dihydro-5H-cyclopenta[b]pyridin-5-yl)-7-fluoro-N-methylimidazo[1,5-a]quinoxaline-8-carboxamide] | 100 to 1000
28 | Cn1ccc(N(Cc2ncc(C(F)(F)F)cc2F)C(=O)c2cc3c(cc2F)nc(N)c2cncn23)n1 [Ff-307, 4-amino-7-fluoro-N-((3-fluoro-5-(trifluoromethyl)pyridin-2-yl)methyl)-N-(1-methyl-1H-pyrazol-3-yl)imidazo[1,5-a]quinoxaline-8-carboxamide] | < 100
29 | Nc1nc2cc(F)c(C(=O)N3CCC[C@@H]4Oc5cc(OC(F)(F)F)c(F)cc5[C@@H]43)cc2n2cncc12 (racemic) [Ff-333, Rac-(4-amino-7-fluoroimidazo[1,5-a]quinoxalin-8-yl)((4aS,9bS)-8-fluoro-7-(trifluoromethoxy)-3,4,4a,9b-tetrahydrobenzofuro[3,2-b]pyridin-1(2H)-yl)methanone] | < 100
